Each molecule was assayed against ROCK2 (human) (UniProt O75116) (assay: Inhibition of ROCK2 Kinase Activity).
ROCK2 (human), sequence (O75116 whole entry, looked up): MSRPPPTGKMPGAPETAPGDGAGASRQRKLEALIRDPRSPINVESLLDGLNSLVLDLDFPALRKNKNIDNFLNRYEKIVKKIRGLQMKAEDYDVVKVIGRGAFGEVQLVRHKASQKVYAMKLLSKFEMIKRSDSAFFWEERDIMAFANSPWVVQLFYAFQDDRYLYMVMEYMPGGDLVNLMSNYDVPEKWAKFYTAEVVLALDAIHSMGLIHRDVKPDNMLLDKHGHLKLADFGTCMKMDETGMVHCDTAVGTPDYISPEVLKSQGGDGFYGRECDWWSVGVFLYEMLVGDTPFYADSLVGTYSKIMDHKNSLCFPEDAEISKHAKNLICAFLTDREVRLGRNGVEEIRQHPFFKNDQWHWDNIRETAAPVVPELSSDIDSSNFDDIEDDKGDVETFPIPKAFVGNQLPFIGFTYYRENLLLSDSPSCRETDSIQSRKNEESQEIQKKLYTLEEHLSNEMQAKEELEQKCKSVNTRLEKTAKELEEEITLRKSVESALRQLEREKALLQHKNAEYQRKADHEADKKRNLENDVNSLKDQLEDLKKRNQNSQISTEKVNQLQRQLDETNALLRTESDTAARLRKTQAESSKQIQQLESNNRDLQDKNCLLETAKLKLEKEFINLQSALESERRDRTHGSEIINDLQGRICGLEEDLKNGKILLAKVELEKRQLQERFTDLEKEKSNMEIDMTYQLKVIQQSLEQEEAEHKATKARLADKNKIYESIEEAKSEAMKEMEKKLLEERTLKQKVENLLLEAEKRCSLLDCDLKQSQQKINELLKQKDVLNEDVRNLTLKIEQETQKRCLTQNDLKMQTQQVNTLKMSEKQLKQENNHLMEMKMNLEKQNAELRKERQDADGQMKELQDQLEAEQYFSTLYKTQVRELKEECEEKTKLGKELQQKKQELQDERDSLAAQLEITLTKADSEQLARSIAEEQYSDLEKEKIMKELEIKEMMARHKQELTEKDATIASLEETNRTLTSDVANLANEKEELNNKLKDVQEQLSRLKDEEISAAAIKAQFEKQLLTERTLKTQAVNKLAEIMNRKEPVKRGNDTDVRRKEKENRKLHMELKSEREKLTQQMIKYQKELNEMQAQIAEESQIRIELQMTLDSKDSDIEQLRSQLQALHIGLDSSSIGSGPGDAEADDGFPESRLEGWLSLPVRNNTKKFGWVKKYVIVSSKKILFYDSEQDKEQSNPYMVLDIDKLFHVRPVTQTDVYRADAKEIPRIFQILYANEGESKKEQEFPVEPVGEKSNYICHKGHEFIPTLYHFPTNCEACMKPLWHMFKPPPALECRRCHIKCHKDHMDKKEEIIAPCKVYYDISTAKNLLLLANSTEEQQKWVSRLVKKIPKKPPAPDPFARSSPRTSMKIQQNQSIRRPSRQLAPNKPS

SMILES | IC50 [nM]
COc1ccc(Cl)cc1C1CCCCN1C(=O)CC(N)c1ccc(C(=O)Nc2ccncc2)cc1 (stereo unspecified) | < 500
NC(CC(=O)N1CCCCC1c1ccc(F)cc1)c1ccc(C(=O)Nc2ccncc2)cc1 (stereo unspecified) | < 500
NC(c1ccc(C(=O)Nc2ccncc2)cc1)C1CCCN1S(=O)(=O)c1ccc(Cl)cc1 (stereo unspecified) | 500 to 5000
NC(C(=O)NCCc1ccc(F)cc1)c1ccc(C(=O)Nc2ccncc2)cc1 (stereo unspecified) | < 500
CS(=O)(=O)NCC(N)c1ccc(C(=O)Nc2ccncc2)cc1 (stereo unspecified) | < 500
Cc1ccc(S(=O)(=O)NCC(N)c2ccc(C(=O)Nc3ccncc3)cc2)cc1 (stereo unspecified) | < 500
CN(CC(N)c1ccc(C(=O)Nc2ccncc2)cc1)S(=O)(=O)c1cccc(Cl)c1 (stereo unspecified) | 500 to 5000
NC(C(=O)N1CCN(Cc2ccc(F)cc2)CC1)c1ccc(C(=O)Nc2ccncc2)cc1 (stereo unspecified) | 500 to 5000
NC(C(=O)N1CCN(Cc2ccccc2F)CC1)c1ccc(C(=O)Nc2ccncc2)cc1 (stereo unspecified) | 500 to 5000
NC(CNS(=O)(=O)c1ccccc1)c1ccc(C(=O)Nc2ccncc2)cc1 (stereo unspecified) | < 500
COc1ccc(S(=O)(=O)NCC(N)c2ccc(C(=O)Nc3ccncc3)cc2)cc1OC (stereo unspecified) | < 500
NC(C(=O)NCCN1CCOCC1)c1ccc(C(=O)Nc2ccncc2)cc1 (stereo unspecified) | 500 to 5000
NC(c1ccc(C(=O)Nc2ccncc2)cc1)C1CCCN1S(=O)(=O)c1ccccc1Cl (stereo unspecified) | 500 to 5000
NC(CC(=O)N1CCCC1c1ccccc1)c1ccc(C(=O)Nc2ccncc2)cc1 (stereo unspecified) | < 500
COc1ccc(S(=O)(=O)N(C)C[C@H](N)c2ccc(C(=O)Nc3ccncc3)cc2)cc1 | 5000 to 50000
NC(CC(=O)N1CCCCC1c1cc(Cl)ccc1Cl)c1ccc(C(=O)Nc2ccncc2)cc1 (stereo unspecified) | < 500
NC(CC(=O)N1CCCCC1)c1ccc(C(=O)Nc2ccncc2)cc1 (stereo unspecified) | < 500
NC(CC(=O)N1CCc2ccccc2C1)c1ccc(C(=O)Nc2ccncc2)cc1 (stereo unspecified) | < 500
CC1CN(C(=O)C(N)c2ccc(C(=O)Nc3ccncc3)cc2)CC(C)O1 (stereo unspecified) | 500 to 5000
Cc1ccc(CN2CCC(NC(=O)C(N)c3ccc(C(=O)Nc4ccncc4)cc3)CC2)s1 (stereo unspecified) | 500 to 5000
NC(C(=O)NCc1ccccc1Cl)c1ccc(C(=O)Nc2ccncc2)cc1 (stereo unspecified) | < 500
CCCCS(=O)(=O)NCC(N)c1ccc(C(=O)Nc2ccncc2)cc1 (stereo unspecified) | < 500
NC(CC(=O)N1CCN(CCO)CC1)c1ccc(C(=O)Nc2ccncc2)cc1 (stereo unspecified) | < 500
NC(CC(=O)N1CCC(c2ccccc2)CC1)c1ccc(C(=O)Nc2ccncc2)cc1 (stereo unspecified) | < 500
NC(CNS(=O)(=O)Cc1ccccc1)c1ccc(C(=O)Nc2ccncc2)cc1 (stereo unspecified) | < 500
NC(CC(=O)N1CCCCC1c1ccc(Cl)cc1)c1ccc(C(=O)Nc2ccncc2)cc1 (stereo unspecified) | < 500

SMILES | IC50 [nM]
NC(C(=O)NCCc1cccs1)c1ccc(C(=O)Nc2ccncc2)cc1 (stereo unspecified) | < 500
COc1ccc(CNC(=O)C(N)c2ccc(C(=O)Nc3ccncc3)cc2)cc1 (stereo unspecified) | < 500
NC(C(=O)N1CCC(O)(c2ccccc2)CC1)c1ccc(C(=O)Nc2ccncc2)cc1 (stereo unspecified) | 500 to 5000
NC(C(=O)N1CCCC1c1cccc(F)c1)c1ccc(C(=O)Nc2ccncc2)cc1 (stereo unspecified) | < 500
NC(CNS(=O)(=O)c1ccccc1Cl)c1ccc(C(=O)Nc2ccncc2)cc1 (stereo unspecified) | < 500
CN(CC(N)c1ccc(C(=O)Nc2ccncc2)cc1)S(=O)(=O)c1cccc(F)c1 (stereo unspecified) | 500 to 5000
NC(CNS(=O)(=O)c1ccc(Cl)cc1)c1ccc(C(=O)Nc2ccncc2)cc1 (stereo unspecified) | < 500
NC(CNS(=O)(=O)c1ccc(-c2ccccc2)cc1)c1ccc(C(=O)Nc2ccncc2)cc1 (stereo unspecified) | 500 to 5000
NC(C(=O)NCC1CC1)c1ccc(C(=O)Nc2ccncc2)cc1 (stereo unspecified) | 500 to 5000
NC(CC(=O)N1CCN(c2ccccc2)CC1)c1ccc(C(=O)Nc2ccncc2)cc1 (stereo unspecified) | < 500
CC1CC(C)CN(C(=O)CC(N)c2ccc(C(=O)Nc3ccncc3)cc2)C1 (stereo unspecified) | < 500
COC(=O)c1ccc2c(c1)CCN(C(=O)CC(N)c1ccc(C(=O)Nc3ccncc3)cc1)C2 (stereo unspecified) | 500 to 5000
CN(CC(N)c1ccc(C(=O)Nc2ccncc2)cc1)S(=O)(=O)c1ccc(Cl)cc1 (stereo unspecified) | 500 to 5000
N[C@H](C(=O)NCc1ccccc1)c1ccc(C(=O)Nc2ccncc2)cc1 | < 500
NC(c1ccc(C(=O)Nc2ccncc2)cc1)C1CCCN1S(=O)(=O)c1ccccc1F (stereo unspecified) | 500 to 5000
NC(C(=O)NC1CCCCC1)c1ccc(C(=O)Nc2ccncc2)cc1 (stereo unspecified) | 500 to 5000
COC(=O)c1ccc(C2CCCCN2C(=O)CC(N)c2ccc(C(=O)Nc3ccncc3)cc2)cc1 (stereo unspecified) | < 500
CC1CN(C(=O)CC(N)c2ccc(C(=O)Nc3ccncc3)cc2)CC(C)O1 (stereo unspecified) | < 500
NC(CNS(=O)(=O)c1cccc(Oc2ccccc2)c1)c1ccc(C(=O)Nc2ccncc2)cc1 (stereo unspecified) | 500 to 5000
NC(C(=O)NCCc1ccccc1)c1ccc(C(=O)Nc2ccncc2)cc1 (stereo unspecified) | < 500
NC(CNS(=O)(=O)c1cccc(Cl)c1)c1ccc(C(=O)Nc2ccncc2)cc1 (stereo unspecified) | < 500
NC(CNS(=O)(=O)c1cccc2nonc12)c1ccc(C(=O)Nc2ccncc2)cc1 (stereo unspecified) | < 500
COc1ccc(S(=O)(=O)N(C)C[C@@H](N)c2ccc(C(=O)Nc3ccncc3)cc2)cc1 | < 500
NC(C(=O)N1CCC(c2nc3ccccc3o2)CC1)c1ccc(C(=O)Nc2ccncc2)cc1 (stereo unspecified) | < 500
COCC(C)NC(=O)C(N)c1ccc(C(=O)Nc2ccncc2)cc1 (stereo unspecified) | 500 to 5000
